Values joined by “and” are separate entries in the source; they are usually repeats but may differ in a detail not shown here. Identical values can stand only once.
Experiments:
DYRK1A = DYRK1A (Homo sapiens, UniProt Q13627); experiment: DYRK1A binding assay (DiscoverX KINOMEscan); conditions: eleven serial three fold dilutions, highest concentration 60 μM
Procedure: Compounds were tested for DYRK1A binding activity at the commercial kinase profiling service DiscoverX. DiscoverX uses proprietary KINOMEscan® Assay (Fabian et al., “A Small Molecule-kinase Interaction Map for Clinical Kinase Inhibitors,” Nat. Biotechnol. 23(3):329-336 (2005), which is hereby incorporated by reference in its entirety). Compounds were screened for DYRK1A activity at a single concentration of 3 μM in duplicates. Similarly, the dissociation constant Kd of the hit compounds from the initial screening was determined at DiscoverX using their proprietary KINOMEscan® Assay. Kd values are determined using eleven serial three fold dilutions with the highest concentration of 60 μM.

DYRK1/DYRK1A = biological target: T1, DYRK1/DYRK1A (Homo sapiens, UniProt Q13627); experiment: DYRK1/DYRK1A IC50 assay (Reaction Biology Corp.); assay type: biochemical; conditions: DYRK1/DYRK1A assay from Reaction Biology Corp.; NI: No inhibition
T1 construct: purchased Reaction Biology Corp. (assay service)

SMILES	Kd (DYRK1A)	IC50 (DYRK1/DYRK1A)
O=c1[nH]c2ccc(-c3ccc(NCc4ccc(F)cc4)nn3)cc2[nH]1 [Compound 16a, 5-(6-((4-Fluorobenzyl)amino)pyridazin-3-yl)-1H-benzo[d]imidazol-2 (3H)-one]	7000 nM	–
O=c1[nH]c2ccc(-c3cnc(NCc4ccc(F)cc4)nc3)cc2[nH]1 [Compound 16b, 5-(2-((4-Fluorobenzyl)amino)pyrimidin-5-yl)-1H-benzo[d]imidazol-2(3H)-one]	73 nM and 82 nM and 140 nM	–
O=c1[nH]c2ccc(-c3cnc(NCc4ccccc4)nc3)cc2[nH]1 [Compound 16c]	50 nM and 95 nM and 80 nM and 60 nM	–
Cn1c(=O)[nH]c2ccc(-c3cnc(NCc4ccccc4)nc3)cc21 [Compound 17c, 6-(2-(Benzylamino)pyrimidin-5-yl)-1-methyl-1H-benzo[d]imidazol-2(3H)-one]	59 nM	–
Cn1c(=O)[nH]c2ccc(-c3cnc(NCc4ccc(F)cc4)nc3)cc21 [Compound 17d, 6-(2-((4-Fluorobenzyl)amino)pyrimidin-5-yl)-1-methyl-1H-benzo[d]imidazol-2 (3H)-one]	90 nM	–
c1ccc(CNc2ncc(-c3ccc4[nH]cnc4c3)cn2)cc1 [Compound 17i, 5-(1H-Benzo[d]imidazol-5-yl)-N-benzylpyrimidin-2-amine]	2000 nM	–
Fc1ccc(CNc2ncc(-c3ccc4[nH]cnc4c3)cn2)cc1 [Compound 17j, 5-(1H-Benzo[d]imidazol-5-yl)-N-(4-fluorobenzyl)pyrimidin-2-amine]	2300 nM	–
O=c1[nH]c2ccc(-c3cnc(NCc4ccccc4)cn3)cc2[nH]1 [Compound 18c, 5-(5-(Benzylamino)pyrazin-2-yl)-1H-benzo[d]imidazol-2(3H)-one]	170 nM	–
O=c1[nH]c2ccc(-c3cnc(NCc4ccc(F)cc4)cn3)cc2[nH]1 [Compound 18d, 5-(5-((4-Fluorobenzyl)amino)pyrazin-2-yl)-1H-benzo[d]imidazol-2 (3H)-one]	260 nM	–
O=c1[nH]c2ccc(-c3cncc(NCc4ccccc4)n3)cc2[nH]1 [Compound 18m, 5-(6-(Benzylamino)pyrazin-2-yl)-1H-benzo[d]imidazol-2(3H)-one]	–	0.00113 µM
O=c1[nH]c2ccc(-c3cnc(NCc4ccccc4F)nc3)cc2[nH]1 [Compound 29a, 5-(2-((2-Fluorobenzyl)amino)pyrimidin-5-yl)-1H-benzo[d]imidazol-2(3H)-one]	69 nM	–
O=c1[nH]c2ccc(-c3cnc(NCc4cccc(F)c4)nc3)cc2[nH]1 [Compound 29b, 5-(2-((3-Fluorobenzyl)amino)pyrimidin-5-yl)-1H-benzo[d]imidazol-2(3H)-one]	91 nM	–
O=c1[nH]c2ccc(-c3cnc(NCc4ccccc4Cl)nc3)cc2[nH]1 [Compound 29c, 5-(2-((2-Chlorobenzyl)amino)pyrimidin-5-yl)-1H-benzo[d]imidazol-2(3H)-one]	250 nM	–
O=c1[nH]c2ccc(-c3cnc(NCc4cccc(Cl)c4)nc3)cc2[nH]1 [Compound 29d, 5-(2-((3-Chlorobenzyl)amino)pyrimidin-5-yl)-1H-benzo[d]imidazol-2(3H)-one]	280 nM	–
O=c1[nH]c2ccc(-c3cnc(NCc4ccc(Cl)cc4)nc3)cc2[nH]1 [Compound 29e, 5-(2-((4-Chlorobenzyl)amino)pyrimidin-5-yl)-1H-benzo[d]imidazol-2(3H)-one]	180 nM	–
N#Cc1cccc(CNc2ncc(-c3ccc4[nH]c(=O)[nH]c4c3)cn2)c1 [Compound 29f, 3-(((5-(2-Oxo-2,3-dihydro-1H-benzo[d]imidazol-5-yl)pyrimidin-2-yl)amino)methyl)benzonitrile]	49 nM	–
N#Cc1ccc(CNc2ncc(-c3ccc4[nH]c(=O)[nH]c4c3)cn2)cc1 [Compound 29g, 4-(((5-(2-Oxo-2,3-dihydro-1H-benzo[d]imidazol-5-yl)pyrimidin-2-yl)amino)methyl)benzonnrile]	120 nM	–
O=c1[nH]c2ccc(-c3cnc(NCc4ccc(-c5ccccc5)cc4)nc3)cc2[nH]1 [Compound 29h, 5-(2-(([1,1′-Biphenyl]-4-ylmethyl)amino)pyrimidin-5-yl)-1H-benzo[d]imidazol-2(3H)-one]	1400 nM	–
CC(Nc1ncc(-c2ccc3[nH]c(=O)[nH]c3c2)cn1)c1ccccc1 (stereo not drawn) [Compound 29j, 5-(2-((1-Phenylethyl)amino)pyrimidin-5-yl)-1H-benzo[d]imidazol-2(3H)-one]	360 nM	–
O=c1[nH]c2ccc(-c3cnc(NCCc4ccccc4)nc3)cc2[nH]1 [Compound 29k, 5-(2-(Phenethylamino)pyrimidin-5-yl)-1H-benzo[d]imidazol-2(3H)-one]	200 nM	–
O=c1[nH]c2ccc(-c3cnc(NCCCc4ccccc4)nc3)cc2[nH]1 [Compound 29l, 5-(2-((3-Phenylpropyl)amino)pyrimidin-5-yl)-1H-benzo[d]imidazol-2(3H)-one]	–	0.034 µM
O=c1[nH]c2ccc(-c3cnc(NCc4cccnc4)nc3)cc2[nH]1 [Compound 30b, 5-(2-((Pyridin-3-ylmethyl)amino)pyrimidin-5-yl)-1H-benzo[d]imidazol-2(3H)-one]	190 nM	–
O=c1[nH]c2ccc(-c3cnc(NCc4ccncc4)nc3)cc2[nH]1 [Compound 30c, 5-(2-((Pyridin-4-ylmethyl)amino)pyrimidin-5-yl)-1H-benzo[d]imidazol-2 (3H)-one]	130 nM	–
O=c1[nH]c2ccc(-c3cnc(NCc4cccc5ccccc45)nc3)cc2[nH]1 [Compound 30d, 5-(2-((Naphthalen-1-ylmethyl)amino)pyrimidin-5-yl)-1H-benzo[d]imidazol-2 (3H)-one]	920 nM	–
O=c1[nH]c2ccc(-c3cnc(NCc4ccc5ccccc5c4)nc3)cc2[nH]1 [Compound 30e, 5-(2-((Naphthalen-2-ylmethyl)amino)pyrimidin-5-yl)-1H-benzo[d]imidazol-2(3H)-one]	7100 nM	–

Next, values leading:

Kd (DYRK1A)	IC50 (DYRK1/DYRK1A)	SMILES
130 nM	–	NC(=O)c1cccc(CNc2ncc(-c3ccc4[nH]c(=O)[nH]c4c3)cn2)c1 [Compound 32a, 3-(((5-(2-Oxo-2,3-dihydro-1H-benzo[d]imidazol-5-yl)pyrimidin-2-yl)amino)methyl)benzamide]
46 nM	–	NC(=O)c1ccc(CNc2ncc(-c3ccc4[nH]c(=O)[nH]c4c3)cn2)cc1 [Compound 32b, 4-(((5-(2-Oxo-2,3-dihydro-1H-benzo[d]imidazo1-5-yl)pyrimidin-2-yl)amino)methyl)benzamide]
–	0.078 µM	O=c1[nH]c2ccc(-c3cnc(Nc4ccccc4F)nc3)cc2[nH]1 [Compound 48a, 5-(2-((2-Fluorophenyl)amino)pyrimidin-5-yl)-1H-benzo[d]imidazol-2(3H)-one]
–	0.0477 µM	O=c1[nH]c2ccc(-c3cnc(Nc4cccc(F)c4)nc3)cc2[nH]1 [Compound 48b, 5-(2-((3-Fluorophenyl)amino)pyrimidin-5-yl)-1H-benzo[d]imidazol-2(3H)-one]
–	0.058 µM	O=c1[nH]c2ccc(-c3cnc(Nc4ccc(F)cc4)nc3)cc2[nH]1 [Compound 48c, 5-(2-((4-Fluorophenyl)amino)pyrimidin-5-yl)-1H-benzo[d]imidazol-2(3H)-one]
–	0.059 µM	O=c1[nH]c2ccc(-c3cnc(Nc4ccccc4Cl)nc3)cc2[nH]1 [Compound 48d, 5-(2-((2-Chlorophenyl)amino)pyrimidin-5-yl)-1H-benzo[d]imidazol-2 (3H)-one]
–	0.0549 µM	O=c1[nH]c2ccc(-c3cnc(Nc4cccc(Cl)c4)nc3)cc2[nH]1 [Compound 48e, 5-(2-((3-Chlorophenyl)amino)pyrimidin-5-yl)-1H-benzo[d]imidazol-2 (3H)-one]
–	0.0906 µM	O=c1[nH]c2ccc(-c3cnc(Nc4ccc(Cl)cc4)nc3)cc2[nH]1 [Compound 48f, 5-(2-((4-Chlorophenyl)amino)pyrimidin-5yl)-1H-benzo[d]imidazol-2 (3H)-one]
–	0.497 µM	COc1ccccc1Nc1ncc(-c2ccc3[nH]c(=O)[nH]c3c2)cn1 [Compound 48g, 5-(2-((2-Methoxyphenyl)amino)pyrimidin-5-yl)-1H-benzo[d]imidazol-2(3H)-one]
–	0.0235 µM	COc1cccc(Nc2ncc(-c3ccc4[nH]c(=O)[nH]c4c3)cn2)c1 [Compound 48h, 5-(2-((3-Methoxyphenyl)amino)pyrimidin-5-yl)-1H-benzo[d]imidazol-2(3H)-one]
–	0.0301 µM	COc1ccc(Nc2ncc(-c3ccc4[nH]c(=O)[nH]c4c3)cn2)cc1 [Compound 48i, 5-(2-((4-Methoxyphenyl)amino)pyrimidin-5-yl)-1H-benzo[d]imidazol-2(3H)-one]
–	0.0732 µM	O=c1[nH]c2ccc(-c3cnc(NCc4ccco4)nc3)cc2[nH]1 [Compound 51a, 5-(2-((Furan-2-ylmethyl)amino)pyrimidin-5-yl)-1H-benzo[d]imidazol-2(3H)-one]
–	0.0327 µM	O=c1[nH]c2ccc(-c3cnc(NCc4cccs4)nc3)cc2[nH]1 [Compound 51b, 5-(2-((Thiophen-2-ylmethyl)amino)pyrimidin-5-yl)-1H-benzo[d]imidazol-2(3H)-one]
–	0.96 µM	O=c1[nH]c2ccc(-c3cnc(NCc4ncc[nH]4)nc3)cc2[nH]1 [Compound 51c, 5-(2-(((1H-Imidazol-2-yl)methyl)amino)pyrimidin-5-yl)-1H-benzo[d]imidazol-2(3H)-one]
–	0.326 µM	O=c1[nH]c2ccc(-c3cnc(NCc4c[nH]cn4)nc3)cc2[nH]1 [Compound 51d, 5-(2-(((1H-Imidazol-4-yl)methyl)amino)pyrimidin-5-yl)-1H-benzo[d]imidazol-2(3H)-one]
–	0.337 µM	O=c1[nH]c2ccc(-c3cnc(NCc4cc[nH]n4)nc3)cc2[nH]1 [Compound 51e, 5-(2-(((1H-Pyrazol-3-yl)methyl)amino)pyrimidin-5-yl)-1H-benzo[d]imidazol-2(3H)-one]
–	0.427 µM	O=c1[nH]c2ccc(-c3cnc(NCc4ncco4)nc3)cc2[nH]1 [Compound 51f, 5-(2-((Oxazol-2-ylmethyl)amino)pyrimidin-5-yl)-1H-benzo[d]imidazol-2(3H)-one]

Source: patent US20220064146A1, “KINASE INHIBITOR COMPOUNDS AND COMPOSITIONS AND METHODS OF USE” (ICAHN SCHOOL OF MEDICINE AT MOUNT SINAI, priority 2018, published 2022)
